From patent US12631645B2, “Detection of BCL-2 family heterodimer complexes and use thereof” (The U.S.A., as represented by the Secretary, Department of …, priority 2019, dated 2026)

What was measured:
[1] = tested on: BAK-BAX oligomerization; test: Heterodimer complexes in AMO-1 xenograft tumor lysates after treatment, BAK-BAX; type: in vivo, mice; conditions: 16 hours after treatment, 100 mg/kg orally (FIG. 7A)
Protocol: The immunoassays described herein were built on the Luminex xMAP multiplex technology platform using magnetic bead capture. Washes were performed with a 96-well magnetic plate washer (ELx405), BioTek). During incubation, the plates were placed on an orbital titer plate shaker (VWR International). Liquid handling was performed manually with calibrated, adjustable, precision multichannel pipettes (Rainin 8-Channel). All assays were performed in 96-well plates (BioPlex, BioRad) at 25° C.±3° C. by adding 10 μL of blocking solution (Myriad RBM) and 30 μL of calibrator, control, or unknown sample. Antibody-coupled beads were sonicated for 5 seconds and then vortexed at medium speed for 10 to 20 seconds to disperse the beads, and 10 μL beads (250 beads/analyte/μL) were added to each well per analyte. Plates were protected from light (Black Microplate Lid, VWR) and incubated for 1 hour at 25° C.±3° C. with shaking. […] After a final wash, 100 μL of assay buffer was added to each well and plates were read on a Luminex 200 reader.
Heterodimer complexes were measured in AMO-1 and MV11 xenograft tumor lysates using the immunoassay described in Examples 3 and 4. […] The level of cleaved caspase-3 was also measured. […] Heterodimer composition was also measured in blood or bone marrow samples of 11 patients with CLL.

[2] = tested on: AMO-1 xenograft tumors; test: Response of multiple myeloma model AMO-1 to BH3 mimetic treatment; type: in vivo, mice; conditions: 100 mg/kg orally, 16 hours (FIG. 7A)
[3] = tested on: MV411 xenograft tumors; test: Response of AML model MV411 to BH3 mimetic treatment; type: in vivo, mice; conditions: MV411 xenograft tumor lysates, 24 hours after treatment; NSC798846 25 mg/kg intravenously, NSC766270 100 mg/kg orally (FIG. 7B)
[4] = tested on: BAX-BAK heterodimer; test: Heterodimer immunoassay, BAX-BAK in lysates of treated cancer cell lines; type: cell-based, human; set-up: BAX-BAK heterodimers: dose or concentration left out as unconfirmed; conditions: for BAX-BAK levels: HCT116 and MOLT-4 cancer cell lines (FIG. 4C)
Protocol: (§1) The immunoassays described herein were built on the Luminex xMAP multiplex technology platform using magnetic bead capture. Washes were performed with a 96-well magnetic plate washer (ELx405), BioTek). During incubation, the plates were placed on an orbital titer plate shaker (VWR International). Liquid handling was performed manually with calibrated, adjustable, precision multichannel pipettes (Rainin 8-Channel). All assays were performed in 96-well plates (BioPlex, BioRad) at 25° C.±3° C. by adding 10 μL of blocking solution (Myriad RBM) and 30 μL of calibrator, control, or unknown sample. Antibody-coupled beads were sonicated for 5 seconds and then vortexed at medium speed for 10 to 20 seconds to disperse the beads, and 10 μL beads (250 beads/analyte/μL) were added to each well per analyte. Plates were protected from light (Black Microplate Lid, VWR) and incubated for 1 hour at 25° C.±3° C. with shaking. Plates were washed with wash solution (Myriad RBM), and then 40 μL of detection antibody-biotin conjugate was added and plates were incubated for an additional hour with shaking. After incubation with the antibody-biotin conjugate, 40 μL of R-phycoerythrin-labeled streptavidin (Invitrogen) was added, and plates were incubated for 30 minutes with shaking. After a final wash, 100 μL of assay buffer was added to each well and plates were read on a Luminex 200 reader.
(§2) Further studies were conducted to evaluate the effect of BH3 mimetics on Bcl-2 family heterodimer levels and induction of apoptosis.
(§3) Similar studies were performed in AMO-1 plasmacytoma cells and Mv4-11 acute myeloid leukemia cells. […] The level of cleaved caspase-3 was also determined.

[5] = tested on: cleaved caspase-3; test: Cleaved caspase-3 level in treated cancer cell lines; type: cell-based, human; set-up: dose or concentration left out as unconfirmed
Protocol: as §2, §3

[6] = target: T1, Bcl-2-BIM complexes (Homo sapiens, UniProt P10415); test: Heterodimer complexes in AMO-1 xenograft tumor lysates after treatment, Bcl-2-BIM; type: in vivo, mice; conditions: 16 hours after treatment, NSC798846 25 mg/kg intravenously, NSC766270 100 mg/kg orally (FIG. 7A)
T1 construct: from tissue; host or cells: AMO-1 xenograft tumors grown in mice
T1 sequence (P10415 whole entry, one chain of several): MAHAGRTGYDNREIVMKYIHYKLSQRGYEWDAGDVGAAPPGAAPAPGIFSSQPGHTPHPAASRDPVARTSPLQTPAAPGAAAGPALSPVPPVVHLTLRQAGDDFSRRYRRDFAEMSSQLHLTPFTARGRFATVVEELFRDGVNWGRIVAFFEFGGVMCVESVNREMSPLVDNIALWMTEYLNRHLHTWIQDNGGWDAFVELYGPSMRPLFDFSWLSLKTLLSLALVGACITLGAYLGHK
Protocol: as §1

[7] = tested on: BIM; conditions: AMO-1 xenograft tumor lysates, 16 hours after 25 mg/kg intravenously (FIG. 7A)
Protocol: The effect of two different BH3 mimetics on heterodimer composition in the AMO-1 and MV411 models was next evaluated. […] Heterodimer complexes were measured in tumor lysates prepared from AMO-1 mice 16 hours after treatment and from MV411 mice 24 hours after treatment.

[8] = tested on: AMO-1 cell line; conditions: read-out: IC50 (sensitivity to S63845), Kotschy et al., Nature 2016; cited from earlier work
[9] = tested on: AMO1 xenografts; conditions: intravenous injection; Kotschy et al.; cited from earlier work
[10] = tested on: MV4-11 human AML xenograft model; conditions: in vivo; compared with AMO1 xenografts; Kotschy et al.; cited from earlier work
[11] = target: T2, BIM-Mcl-1 heterodimer (Homo sapiens, UniProt Q07820); test: Heterodimer immunoassay, BIM-Mcl-1 in lysates of treated cancer cell lines; type: cell-based; set-up: BIM-Mcl-1 heterodimers: dose or concentration left out as unconfirmed
T2 construct: Within cells, anti-apoptotic proteins exist primarily as complexed heterodimers with pro-apoptotic proteins; endogenous in cells; host or cells: AMO-1, MV4-11 (Mv411), HCT116, MOLT-4
T2 sequence (Q07820 whole entry, one chain of several): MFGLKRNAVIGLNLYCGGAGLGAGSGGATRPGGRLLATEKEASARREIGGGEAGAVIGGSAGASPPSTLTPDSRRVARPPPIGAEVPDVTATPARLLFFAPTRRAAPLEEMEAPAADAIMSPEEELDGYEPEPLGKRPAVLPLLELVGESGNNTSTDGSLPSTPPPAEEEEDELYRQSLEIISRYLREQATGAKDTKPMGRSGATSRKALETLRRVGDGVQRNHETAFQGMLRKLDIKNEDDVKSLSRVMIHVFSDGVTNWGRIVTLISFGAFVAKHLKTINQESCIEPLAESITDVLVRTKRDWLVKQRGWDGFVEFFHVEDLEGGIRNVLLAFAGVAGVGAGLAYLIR
Protocol: as §1, §2, §3

[12] = target: BIM-Bcl-xL heterodimer (Homo sapiens, UniProt Q07817); test: Heterodimer immunoassay, BIM-Bcl-xL in lysates of treated cancer cell lines; type: cell-based; set-up: BIM-Bcl-xL heterodimeric complexes: dose or concentration left out as unconfirmed
BIM-Bcl-xL heterodimer, sequence (Q07817 whole entry, one chain of several): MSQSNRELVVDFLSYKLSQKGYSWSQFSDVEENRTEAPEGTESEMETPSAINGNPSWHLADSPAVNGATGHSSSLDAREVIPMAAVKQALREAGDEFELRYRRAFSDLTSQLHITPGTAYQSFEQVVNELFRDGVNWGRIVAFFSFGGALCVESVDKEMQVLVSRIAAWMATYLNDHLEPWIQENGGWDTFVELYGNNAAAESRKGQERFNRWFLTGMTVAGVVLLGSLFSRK
Protocol: as §1, with “After incubation with the antibody-biotin conjugate, 40 μL of R-phycoerythrin-labeled streptavidin (Invitrogen) was added, and plates were incubated for 30 minutes with shaking.” left out, “reader. […]” for “reader.”
as §3

[13] = Mv4-11 cells, treated with vs untreated (FIG. 5D, 5E)
[14] = AMO-1 cells, treated vs untreated (FIG. 5B, 5C)
[15] = HCT116 and MOLT-4 cancer cell lines (FIG. 4D)
[16] = Mv4-11 cells, treated vs untreated (FIG. 5D, 5E)

| BIM-Mcl-1 levels ([11]; AMO-1 and Mv411 cell lines, in vitro (FIG. 3A)) | BIM-Mcl-1 levels ([11]; HCT116 and MOLT-4 cancer cell lines (FIG. 4B)) | BIM-Mcl-1 heterodimers [11, 13] | BIM-Bcl-xL levels ([12]; HCT116 and MOLT-4 cancer cell lines (FIG. 4A)) | BIM-Bcl-xL heterodimeric complexes ([12]; Mv4-11 cells, treated vs untreated (FIG. 5E)) | Structure (SMILES) | BAK-BAX oligomerization (mitochondrial poration marker), subsequent caspase-3 activation and cell death [1] | effectiveness of treatment in multiple myeloma model AMO-1 [2] | disrupting the balance of BIM complexes and initiating caspase-3 activation and cell death [3] | BAX-BAK heterodimers ([4]; AMO-1 cells, treated with vs untreated (FIG. 5B)) | BAX-BAK levels [4] | BAX-BAK heterodimers [4, 13] | cleaved caspase-3 [5, 14] | cleaved caspase-3 [5, 15] | cleaved caspase-3 [5, 16] | Bcl-2-BIM complexes [6] | BIM (overall) [7] | IC50 [8] [nM] | anti-tumor activity in AMO1 xenografts [9] | activity in MV4-11 human AML xenograft model [10] |
| --- | --- | --- | --- | --- | --- | --- | --- | --- | --- | --- | --- | --- | --- | --- | --- | --- | --- | --- | --- |
| – | – | – | – | – | CC1(C)CCC(CN2CCN(c3ccc(C(=O)NS(=O)(=O)c4ccc(NCC5CCOCC5)c([N+](=O)[O-])c4)c(Oc4cnc5[nH]ccc5c4)c3)CC2)=C(c2ccc(Cl)cc2)C1 [NSC766270] | did not initiate | ineffective | equally effective | – | – | – | – | – | – | – | – | – | – | – |
| – | – | – | – | – | Cc1c(-c2c(-c3ccc(F)o3)sc3ncnc(O[C@H](Cc4ccccc4OCc4ccnn4CC(F)(F)F)C(=O)O)c23)ccc(OCCN2CCN(C)CC2)c1Cl [S63845] | – | – | equally effective | increase | increased | significant increase | increase | increased activation | significant increase | disruption | overall degradation | < 100 | dose-dependent anti-tumor activity | less potent activity |
| largely unaffected | increased | increase | disrupted | decrease | CC1(C)CCC(c2ccc(Cl)cc2)=C(CN2CCN(c3ccc(C(=O)NS(=O)(=O)c4ccc(N[C@H](CCN5CCOCC5)CSc5ccccc5)c(S(=O)(=O)C(F)(F)F)c4)cc3)CC2)C1 [novitoclax] | – | – | – | – | increased | increase | did not lead to a significant increase | increased activation | increase | – | – | – | – | – |
